These results are taken from US8178579B2, “Dioxanes and uses thereof” (President and Fellows of Harvard College, priority 2001, dated 2012).

“Also recorded” adds a separate entry of the source.

The test system of data set [1] is rat hippocampal neurons and astrocytes. The data set can be described thus: cultured rat hippocampal neurons and astrocytes: viability, acetylated α-tubulin, synaptotagmin. It is filed as cell-based. The protocol:
All cells were cultured at 37° C. in a humidified incubator supplemented with 5% carbon dioxide. Human A549 lung carcinoma cells, Human HT-1080 fibrosarcoma cells, BSC-1 African green monkey kidney epithelial cells (all from American Tissue Culture Collection) were cultured in Dulbecco's modified eagle medium (DMEM) supplemented with 10% fetal bovine serum, 100 units/mL penicillin G sodium, 100 μg/mL streptomycin sulfate, and 2 mM L-glutamine (DMEM+). Human TAg Jurkat cells and mouse ROSA26 embryonic stem cells (gift of E. Roberston, Harvard University) were cultured as described (12). Mouse NIH-3T3 wild-type (Neo), HDAC6, HDAC6 double mutant, and HDAC1 overexpressing cells (gift from C. Hubbert, Duke University) were cultured as described (C. Hubbert et al., Nature 417, 455 (2002)1). Hippocampal neurons were dissociated from 1-day old rats and grown in culture using methods as described (E. N. Star, D. J. Kwiatkowski and V. N. Murthy, Nat. Neurosci. 5, 239 (2002)). All animal experiments were approved by Harvard University's standing committee on the use of animals in research and training.
(§1) Detection of acetylated α-tubulin and acetylated histones by immunofluorescence was performed as described in Example 6 above. […] For co-localization experiments, biotubacin (50 μM) treated A549 cells were fixed in 3.7% formaldehyde in TBS and processed as for detecting acetylated α-tubulin (See Example 6 above) with biotubacin detected using streptavidin-TR (1:500). HDAC6 was detected using a rabbit polyclonal antibody (1:250-1:750; C.M.G., unpublished data) under the conditions used to detect acetylated α-tubulin (See Example 6 above). Filamentous actin in HT-1080 cells was detected using TR-conjugated phalloidin (1 μg/mL), and depolymerized actin using FITC-conjugated deoxyribonuclease (10 μg/mL), following fixation in 3.7% formaldehyde in TBS. p58 (1:100) in NIH-3T3 cells was detected after fixation in 3.7% formaldehyde in TBS. […]

Data set [2] concerns HDAC6. The data set can be described thus: acetylated α-tubulin and HDAC6 immunofluorescence in control (Neo) and HDAC6-overexpressing fibroblasts. It is filed as cell-based, mouse. Particulars: tubacin 2 μM, 4 h.
Experimental: All cells were cultured at 37° C. in a humidified incubator supplemented with 5% carbon dioxide. […] Mouse NIH-3T3 wild-type (Neo), HDAC6, HDAC6 double mutant, and HDAC1 overexpressing cells (gift from C. Hubbert, Duke University) were cultured as described (C. Hubbert et al., Nature 417, 455 (2002)1).
Detection of acetylated α-tubulin and acetylated histones by immunofluorescence was performed as described in Example 6 above. […] HDAC6 was detected using a rabbit polyclonal antibody (1:250-1:750; C.M.G., unpublished data) under the conditions used to detect acetylated α-tubulin (See Example 6 above). […] Images for these experiments were collected on a Zeiss LSM510 confocal scanning laser microscope at the appropriate wavelengths using the accompanying software and processed with Adobe Photoshop.
Data set [3] has as its system HT-1080 cells. The data set can be described thus: F-actin staining by fluorescence microscopy. The format is cell-based. Conditions: human fibrosarcoma cells, 20 μM, 39 h. The protocol: as §1, with “above. For determining microtubule stability, A549 cells were treated as indicated, fixed in glutaraldehyde, and stained for acetylated α-tubulin and total α-tubulin in antibody dilution buffer (ADB, Tris-buffered saline (TBS), 0.15 M NaCl, 0.02 M Tris-Cl, pH 7.4, with 2% bovine serum albumin and 0.1% Triton-X 100). For cold-depolymerization, cells were incubated at 4° C. or 37° C. for an additional 90 minutes before fixation.” for “above.”

For `O=C(CCCCCCC(=O)Nc1ccc([C@@H]2OC(c3ccc(CO)cc3)C[C@H](CSc3nc(-c4ccccc4)c(-c4ccccc4)o3)O2)cc1)NO` (stereo partly drawn) [tubacin], in data set [1] (7-day old cultures: greater than 5 μM (10 μM, 48 h), 10-day old cultures: 1-2 μM, 96 h), the “viability and morphology of neurons and astrocytes” value was “decreased the viability and staining with synaptotagmin; also recorded: had no affect on the viability of 10-day old neurons and astrocytes; also recorded: caused morphological changes and cell death; also recorded: did not cause a significant decrease in the number of 10-day old rat hippocampal neurons or astrocytes”. The “α-tubulin acetylation in neurons and astrocytes” value in data set [1] (tubacin 1 μM 96 h or 10 μM 48 h, niltubacin 5 μM) is “increased the acetylation of α-tubulin; also recorded: increased α-tubulin acetylation in both cell types”. In data set [1] (tubacin at least 1 μM for four days or 10 μM 48 h, niltubacin 5 μM), the “synaptotagmin staining / synapses” value was “decreased the viability and staining with synaptotagmin; also recorded: had fewer synapses when compared to control cells”. Also, in data set [2] (NIH-3T3 (Neo)), the “co-localization of HDAC6 with acetylated microtubules” value was “Increased co-localization of HDAC6 with acetylated α-tubulin; also recorded: caused an increase in the co-localization of HDAC6 along acetylated microtubules”. Moreover, the “α-tubulin acetylation in control (Neo) versus HDAC6-overexpressing NIH-3T3 cells” value in data set [2] is listed as “Decreased α-tubulin acetylation upon tubacin (2 μM) treatment (4 h) of HDAC6 overexpressing compared to control (Neo) NIH-3T3 cells; also recorded: induced an increase in α-tubulin acetylation; also recorded: decreased tubucin-induced α-tubulin acetylation”. In addition, the “F-actin microfilaments / actin stress fibers” value in data set [3] was “increases F-actin microfilaments; also recorded: caused an increase in the abundance of actin stress fibers”.
